Experimental data: publication PMC10439230 (Scientific Reports, 2023)

Columns and labels:
MDA-MB-231 cells = experiment: Cell death analysis, annexin V/7-AAD double staining, flow cytometry; assay type: cell-based, human; conditions: MDA-MB-231 cells, 24–48 h treatment
Method: Mode of cell death induced by compound 4l was explored using MDA-MB-231 cells by observing change in cell morphology and flow cytometric analysis of annexin V/7-AAD double stained cells. […] Accidental cell death necrosis is typically indicated by the immediate production of bubbles on the cell surface after treatment. […] Additionally, vacuole accumulation was not observed in the treated cells until 48 h after treatment (Fig. 3a). Taken together, we hypothesized that 4l-induced cell death in MDA-MB-231 cells was not processed through necrosis or vacuole-presenting regulated cell death such as autophagy.
Briefly, MDA-MB-231 cells were seeded into 6-well culture plates at 1 × 10^6 cells/well and left in a CO2 incubator for 24 h. Subsequently, the cells were treated with tested compounds for 24–48 h. DMSO was used as a vehicle and its final concentration was kept at 0.2% (v/v) throughout the study. The treated cells were harvested by trypsinization and subjected to annexin V/7-AAD double staining using Muse® Annexin V & Dead Cell Kit as previously described. The stained cells were analyzed by flow cytometric technique using Muse® Cell Analyzer. Population of annexin V-positive cells was defined as early apoptotic cells, and the population positive for both annexin V and 7-AAD was defined as late apoptotic cells. The sequential events of increasing early and late apoptotic cell populations over time is a characteristic of apoptotic cell death.

phospho-FAK (Y397) = experiment: Western blot analysis of FAK phosphorylation; assay type: cell-based, human; conditions: MDA-MB-231 cells, 16 μM, 24 h
Method: We further investigated targets of compound 4l on cell survival signaling pathways including EGFR, FAK, Akt, and ERK in MDA-MB-231 cells. After treatment with 4l at concentrations of 25–50 µM for 24 h, activation (phosphorylation) of the signaling pathways was determined by using western blot analysis.
MDA-MB-231 cells in 6-well culture plates (1 × 10^6 cells/well) were treated with tested compounds for 24 h. Then the cells were harvested and western blot analysis was used to detect alteration of targeted proteins in the treated cells, as previously described. Briefly, the cells in 6-well culture plates were scraped in RIPA cell lysis buffer supplemented with protease/phosphatase inhibitor cocktail before being lysed by sonication. Cell lysates were centrifuged at 12,000×g for 5 min, at 4 °C, to remove cell debris. Total proteins (20 μg) in the cell lysates were separated by SDS-PAGE and blotted to PVDF membranes. The membranes were blocked with 3% (w/v) BSA and incubated overnight at 4 °C with primary antibodies specific to the following proteins: EGFR, phospho-EGFR (Y845), FAK, phospho-FAK (Y397), Akt, phospho-Akt (S473), ERK, and phospho-ERK (T202/Y204). […] Bands of specific proteins were detected by using SuperSignal™ ECL substrates and visualized on X-ray films.

[1] = test system: MRC-5 normal embryonic lung fibroblast cell line; experiment: Cytotoxic activity assay (MTT), normal cells; assay type: cell-based; conditions: Homo sapiens, MRC5, 48 h exposure, read-out: Cell lines, IC50 (μM) MRC-5
Method in brief: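 MTT readout, A550 (ref 650 nm) after DMSO solubilisation; cells 5000–20,000/well, 24 h pre-growth, 48 h compound exposure, 37 °C/5% CO2. MTT incubation 2.5–4 h.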

[2] = test system: HL-60 (acute promyelocytic leukemia); experiment: Cytotoxic activity assay (XTT); assay type: cell-based, human; conditions: for IC50: Homo sapiens, HL-60, 48 h exposure, XTT, read-out: Cell lines, IC50 (μM) HL-60; for Selectivity Index (SI) values HL-60: SI = IC50 normal cell (MRC-5)/ IC50 cancer cell
Method in brief: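 HL-60 human acute promyelocytic leukemia cells, handled as suspension cells, were plated in 96-well plates at 75 µL and 5000–20,000 cells per well. They were kept for 30 min at 37 °C in 95% humidity and 5% CO2. An equal volume of medium carrying test compound was then added for 48 h. Viability was measured by XTT: 75 µL reagent per well, 4 h incubation, and orange formazan absorbance read at 492 nm against a 690 nm reference.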

[3] = test system: MOLT-3 (T cell acute lymphoblastic leukemia); experiment: Cytotoxic activity assay (XTT); assay type: cell-based, human; conditions: for IC50: Homo sapiens, MOLT-3, 48 h exposure, XTT, read-out: Cell lines, IC50 (μM) MOLT-3; for Selectivity Index (SI) values MOLT-3: SI = IC50 normal cell (MRC-5)/ IC50 cancer cell
[4] = test system: HeLa (cervical carcinoma); experiment: Cytotoxic activity assay (MTT); assay type: cell-based, human; conditions: for IC50: Homo sapiens, 48 h exposure, MTT, read-out: Cell lines, IC50 (μM) HeLa; for Selectivity Index (SI) values HeLa: SI = IC50 normal cell (MRC-5)/ IC50 cancer cell
Method in brief: (§1)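 Adherent human cancer lines were seeded at 5000–20,000 cells/well, grown 24 h at 37 °C, 5% CO2, then exposed to test compounds for 48 h. Viability was read by MTT: formazan dissolved in DMSO, absorbance at 550 nm with 650 nm reference.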

[5] = test system: H69AR (multidrug-resistant small cell lung carcinoma); experiment: Cytotoxic activity assay (MTT); assay type: cell-based, human; conditions: for IC50: Homo sapiens, H69AR, 48 h exposure, MTT, read-out: Cell lines, IC50 (μM) H69AR; for Selectivity Index (SI) values H69AR: SI = IC50 normal cell (MRC-5)/ IC50 cancer cell
Method in brief: as §1

[6] = test system: A549 (lung adenocarcinoma); experiment: Cytotoxic activity assay (MTT); assay type: cell-based, human; conditions: for IC50: Homo sapiens, A549, 48 h exposure, MTT, read-out: Cell lines, IC50 (μM) A549; for Selectivity Index (SI) values A549: SI = IC50 normal cell (MRC-5)/ IC50 cancer cell
Method in brief: as §1

[7] = test system: HuCCA-1 (cholangiocarcinoma derived from a patient); experiment: Cytotoxic activity assay (MTT); assay type: cell-based, human; conditions: for IC50: Homo sapiens, HuCC-A1, 48 h exposure, MTT, read-out: Cell lines, IC50 (μM) HuCCA-1; for Selectivity Index (SI) values HuCCA-1: SI = IC50 normal cell (MRC-5)/ IC50 cancer cell
Method in brief: as §1

[8] = test system: HepG2 (hepatocellular carcinoma); experiment: Cytotoxic activity assay (MTT); assay type: cell-based, human; conditions: for IC50: Homo sapiens, HepG2, 48 h exposure, MTT, read-out: Cell lines, IC50 (μM) HepG2; for Selectivity Index (SI) values HepG2: SI = IC50 normal cell (MRC-5)/ IC50 cancer cell
Method in brief: as §1

[9] = test system: MDA-MB-231 (triple-negative breast cancer); experiment: Cytotoxic activity assay (MTT); assay type: cell-based, human; conditions: for IC50: Homo sapiens, MDA-MB-231, 48 h exposure, MTT, read-out: Cell lines, IC50 (μM) MDA-MB-231; for Selectivity Index (SI) values MDA-MB-231: SI = IC50 normal cell (MRC-5)/ IC50 cancer cell
Method in brief: as §1

[10] = test system: T-47D (hormone-dependent breast cancer); experiment: Cytotoxic activity assay (MTT); assay type: cell-based, human; conditions: for IC50: Homo sapiens, T47D, 48 h exposure, MTT, read-out: Cell lines, IC50 (μM) T47-D; for Selectivity Index (SI) values T47-D: SI = IC50 normal cell (MRC-5)/ IC50 cancer cell
Method in brief: as §1

## Cl.Cl.Cl.Cl.Nc1cc(N)c(N)cc1N [FAKi, 1,2,4,5-benzenetetraamine tetrahydrochloride, reference compound]
MDA-MB-231 cells
  mode of cell death: non-apoptotic cell death
phospho-FAK (Y397)
  FAK phosphorylation: clearly inhibited

## C=C1CC[C@H]2C(C)(C)CCC[C@]2(C)[C@H]1CC/C(C)=C/C(=O)NCC(=O)OC [Compound 4q, Methyl ((E)-3-methyl-5-((1S,4aS,8aS)-5,5,8a-trimethyl-2-methylenedeca-hydronaphthalen-1-yl)pent-2-enoyl)glycinate]
[1]
  IC50: 65.29 ± 0.11 µM
[2]
  IC50: 26 ± 0.55 µM
  Selectivity Index (SI) values HL-60: 2.5
[3]
  IC50: 14.9 ± 0.32 µM
  Selectivity Index (SI) values MOLT-3: 4.4
[4]
  IC50: 39.1 ± 0.78 µM
  Selectivity Index (SI) values HeLa: 1.7
[5]
  IC50: 61.4 ± 2.03 µM
  Selectivity Index (SI) values H69AR: 1.1
[6]
  IC50: 43.8 ± 3.08 µM
  Selectivity Index (SI) values A549: 1.5
[7]
  IC50: 81.1 ± 2.42 µM
  Selectivity Index (SI) values HuCCA-1: 0.8
[8]
  IC50: 73.89 ± 0.3 µM
  Selectivity Index (SI) values HepG2: 0.9
[9]
  IC50: 46.2 ± 1.89 µM
  Selectivity Index (SI) values MDA-MB-231: 1.4
[10]
  IC50: 71.3 ± 2.07 µM
  Selectivity Index (SI) values T47-D: 0.9

## C=C1CC[C@H]2C(C)(C)CCC[C@]2(C)[C@H]1CC/C(C)=C/C(=O)NOC [Compound 4i, (E)-N-Methoxy-3-methyl-5-((1S,4aS,8aS)-5,5,8a-trimethyl-2-methylene-decahydronaphthalen-1-yl)pent-2-enamide]
[1]
  IC50: 52.68 ± 0.03 µM
[2]
  IC50: 24.9 ± 0.45 µM
  Selectivity Index (SI) values HL-60: 2.1
[3]
  IC50: 21.4 ± 1.29 µM
  Selectivity Index (SI) values MOLT-3: 2.5
[4]
  IC50: 53.8 ± 0.83 µM
  Selectivity Index (SI) values HeLa: 1.0
[5]
  IC50: 96.91 ± 0.46 µM
  Selectivity Index (SI) values H69AR: 0.5
[6]
  IC50: 45.7 ± 0.63 µM
  Selectivity Index (SI) values A549: 1.2
[7]
  IC50: 49.8 ± 0.18 µM
  Selectivity Index (SI) values HuCCA-1: 1.1
[8]
  IC50: 44.26 ± 0.4 µM
  Selectivity Index (SI) values HepG2: 1.2
[9]
  IC50: 45 ± 0.86 µM
  Selectivity Index (SI) values MDA-MB-231: 1.2
[10]
  IC50: 41.3 ± 1.61 µM
  Selectivity Index (SI) values T47-D: 1.3

## C=C1CC[C@H]2C(C)(C)CCC[C@]2(C)[C@H]1CC/C(C)=C/C(=O)N(C)C [Compound 4m, (E)-N,N,3-Trimethyl-5-((1S,4aS,8aS)-5,5,8a-trimethyl-2-methylenedecahydro-naphthalen-1-yl)pent-2-enamide]
[1]
  IC50: 40.8 ± 0.56 µM
[2]
  IC50: 19.4 ± 0.84 µM
  Selectivity Index (SI) values HL-60: 2.1
[3]
  IC50: 21.3 ± 0.47 µM
  Selectivity Index (SI) values MOLT-3: 1.9
[4]
  IC50: 40.1 ± 0.68 µM
  Selectivity Index (SI) values HeLa: 1.0
[5]
  IC50: 99.97 ± 0.74 µM
  Selectivity Index (SI) values H69AR: 0.4
[6]
  IC50: 51.82 ± 0.25 µM
  Selectivity Index (SI) values A549: 0.8
[7]
  IC50: 44.31 ± 0.42 µM
  Selectivity Index (SI) values HuCCA-1: 0.9
[8]
  IC50: 52.1 ± 2.82 µM
  Selectivity Index (SI) values HepG2: 0.8
[9]
  IC50: 32.1 ± 1.68 µM
  Selectivity Index (SI) values MDA-MB-231: 1.3
[10]
  IC50: 42.6 ± 1.08 µM
  Selectivity Index (SI) values T47-D: 1.0

## C=C1CC[C@H]2C(C)(C)CCC[C@]2(C)[C@H]1CC/C(C)=C/C(=O)Nc1ccccc1 [Compound 4e, (E)-3-Methyl-N-phenyl-5-((1S,4aS,8aS)-5,5,8a-trimethyl-2-methylene-decahydronaphthalen-1-yl)pent-2-enamide]
[1]
  IC50: > 120 µM
[2]
  IC50: 60.6 ± 4.97 µM
  Selectivity Index (SI) values HL-60: 2.2
[3]
  IC50: 25.9 ± 1.88 µM
  Selectivity Index (SI) values MOLT-3: 5.1
[4]
  IC50: 98.11 ± 0.08 µM
  Selectivity Index (SI) values HeLa: 1.3
[5]
  IC50: > 120 µM
  Selectivity Index (SI) values H69AR: 1.0
[6]
  IC50: 46.9 ± 1.28 µM
  Selectivity Index (SI) values A549: 2.8
[7]
  IC50: > 120 µM
  Selectivity Index (SI) values HuCCA-1: 1.0
[8]
  IC50: > 120 µM
  Selectivity Index (SI) values HepG2: 1.0
[9]
  IC50: > 120 µM
  Selectivity Index (SI) values MDA-MB-231: 1.0
[10]
  IC50: > 120 µM
  Selectivity Index (SI) values T47-D: 1.0

## C#CCNC(=O)/C=C(\C)CC[C@H]1C(=C)CC[C@H]2C(C)(C)CCC[C@]12C [Compound 4c, (E)-3-Methyl-N-(prop-2-yn-1-yl)-5-((1S,4aS,8aS)-5,5,8a-trimethyl-2-methylenedecahydronaphthalen-1-yl)pent-2-enamide]
[1]
  IC50: 48.1 ± 0.62 µM
[2]
  IC50: 24.13 ± 0.08 µM
  Selectivity Index (SI) values HL-60: 2.0
[3]
  IC50: 23.2 ± 1.03 µM
  Selectivity Index (SI) values MOLT-3: 2.1
[4]
  IC50: 28.1 ± 0.93 µM
  Selectivity Index (SI) values HeLa: 1.7
[5]
  IC50: 113 ± 1.35 µM
  Selectivity Index (SI) values H69AR: 0.4
[6]
  IC50: 54.1 ± 1.17 µM
  Selectivity Index (SI) values A549: 0.9
[7]
  IC50: 52.7 ± 0.11 µM
  Selectivity Index (SI) values HuCCA-1: 0.9
[8]
  IC50: 85.06 ± 0.61 µM
  Selectivity Index (SI) values HepG2: 0.6
[9]
  IC50: 27.5 ± 0.62 µM
  Selectivity Index (SI) values MDA-MB-231: 1.8
[10]
  IC50: 76.6 ± 4.68 µM
  Selectivity Index (SI) values T47-D: 0.6
